Source: patent US5091381A, “2H-1,3,4-benzotriazepin-2-ones” (Biomeasure, Inc., priority 1991, dated 1992)
Read-outs that look alike come from different tables or passages of the source.

Assays:
[1] = test system: rat pancreatic tumor cell line (AR42J); experiment: Proliferation assay (growth curves), AR42J; assay type: cell-based; conditions: single application
Experimental: (§1) The rat pancreatic tumor cell line (AR42J) was obtained from the American Type Culture Collection. The human colon adenocarcinoma (HT-29) and mouse melanoma (B16 F10) were obtained from the in-house tumor bank. The HT-29 cell line is used to generate the CX-1 tumor in nude mice. All cell lines were propagated in Dulbecco's modified Eagle's medium (DMEM) supplemented with 10% fetal bovine serum (FBS) and incubated in a humidified atmosphere of 90% air/ 10% CO2 at 37° C. These cell lines were maintained at Biomeasure, Inc. and were free of mycoplasma as judged by the indirect (Hoechst) method and the direct (Agar) method.
(§2) Growth Curves--The AR42J and HT-29 cells were plated at 5×10^4 cells per well and the B16 F10 was plated at 1×10^4 cells per well in 24 well tissue cult ure dishes in 1ml of DMEM supplemented with 10% FBS. […] The tissue culture plates were incubated at 37° C. in a humidified atomsphere of 90% air/10% CO2 for up to 8 days. At various times, single cell suspensions were obtained by washing the wells with DMEM, adding 0.5 ml of 0.05% trypsin--0.53 mM EDTA, incubating at 37° C. for 5 min., triturating, and adding 0.5ml of DMEM supplemented with 10% FBS to inhibit the trypsin. The total content of each well was added to Isoton and counted using a Coulter Counter model ZF attached to a Channelizer model 256 to ensure that a uniform single cell population was obtained.

[2] = test system: human colon adenocarcinoma (HT-29); experiment: Proliferation assay (growth curves), HT-29; assay type: cell-based
Experimental: as §1, §2

[3] = target: T1, peripheral BZD receptor (Rattus norvegicus, UniProt P16257); experiment: Receptor binding assay, peripheral BZD ([3H]RO5-4864 displacement, rat forebrain membranes); conditions: read-out: BENZODIAZEPINE RECEPTOR BINDING, PERIPHERAL BZD
T1 construct: Crude membranes were prepared by homogenization of a rat forebrain sample; from tissue; host or cells: rat forebrain crude membranes
Experimental: (§3) Crude membranes were prepared by homogenization of a rat forebrain sample in 20 ml of ice-cold 50 mM phosphate buffer (81 mM Na^+, 9 mMK^+) buffer with a Brinkman Polytron (setting 6, 15 sec). Buffer was added to obtain a final volume of 40 ml, and the homogenate was centrifuged in a Sorval SS-34 rotor at 39,000 g for 10 min at 0°-4° C. The resulting supernatant was decanted and discarded. The pellet was rehomogenized in ice-cold buffer, diluted, and centrifuged as before. The final pellet was resuspended in the assay buffer and held on ice for the receptor binding assay.
For the receptor binding assay, aliquots of the membrane preparation were incubated for 90 min at 4° C. in 50 mM phosphate buffer containing 0.5 nM [^3 H]RO-4864 and various concentrations of the unlabeled test compounds. The assay was terminated by rapid filtration through Whatman GF/B filters under vacuum. The filters were washed three times with 5-ml aliquots of ice-cold buffer, and the bound radioactivity trapped on the filters was counted by liquid scintillation spectrometry.
(§4) The inhibition constants (Ki) were calculated from the equation Ki=IC50/(I+L/Kd), where L is the radioligand concentration and Kd is the equilibrium dissociation constant for the radioligand. The IC50 was derived from the inhibition data by linear least squares regression of log (B/Bt-B) versus log I, where I is the test compound concentration, Bt is the total amount of radioligand specifically bound, and B is the amount of specific binding in the presence of a given concentration of the unlabeled test compound. The IC50 is the antilog of log I, when the expression log (B/Bt-B) equals zero.

[4] = test system: mouse melanoma (B16 F10); experiment: Proliferation assay (growth curves), B16 F10; assay type: cell-based; conditions: 100 nM, single application
Experimental: as §1, §2

[5] = target: neural BZD (central BZD receptor); experiment: Benzodiazepine receptor binding, neural (central) BZD; set-up: species or system rat
Experimental: as §3, §4

[6] = read-out: BENZODIAZEPINE RECEPTOR BINDING, NEURAL BZD

For `CN1C(=O)N(C(=O)c2ccc(F)cc2)N=C(c2ccccc2)c2ccccc21` [BIM-18154], the “inhibition of the growth of AR42J cells” value [1] was “did not inhibit”, the inhibition of growth ([2]; HT-29, day 4, single application) was about 35% and the “inhibiting the growth of HT-29 cells” value ([2]; single application) was “active”. The Ki [3] was 0.68 nM and the “inhibiting the growth of B16 F10 cells” value [4] was “marginally active”.
Work on `CN1C(=O)N(C(=O)c2ccc(Cl)c(Cl)c2)N=C(c2ccccc2)c2ccccc21` [BIM-18156] yielded a Ki [3] of 1.68 nM.
`CN1C(=O)N(Cc2ccc(F)cc2)N=C(c2ccccc2)c2ccccc21` [BIM-18268] showed a Ki [3] of 12 nM.
`CN1C(=O)N(Cc2ccc(Cl)c(Cl)c2)N=C(c2ccccc2)c2ccccc21` [BIM-18269] gave a Ki [3] of 53 nM.
`CN1C(=O)N(C(=O)c2ccc(F)c(F)c2)N=C(c2ccccc2)c2ccccc21` [BIM-18272] showed a Ki [3] of 3.1 nM.
Molecule `O=C1CN=C(c2ccccc2Cl)c2cc([N+](=O)[O-])ccc2N1` [CLONAZEPAM, clonazepam, reference compound] has a Ki [3] of 10000 nM and a Ki [5, 6] of 0.55 nM.
Molecule `CN1C(=O)CN=C(c2ccccc2)c2cc(Cl)ccc21` [DIAZEPAM, diazepam] has a Ki ([5]; read-out: BENZ[…] BINDING, NEURAL BZD) of 8.4 nM.
For `CN1C(=O)CN=C(c2ccc(Cl)cc2)c2cc(Cl)ccc21` [RO5-4864], the Ki [5, 6] was 7210 nM.
